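Protocol summary: plate cells (96-well), add compound at 5 concentrations, incubate 48 h, interpolate endpoints linearly. Here, GI50 denotes the concentration required for 50% inhibition of growth.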 Activity calls are given as the source filed them. No stated cut-off is given here; in the data, active = GI50 up to about 1.1 µM and inactive = higher.
Key:
Test in all cases: growth of human tumour cells (NCI), 48 h
COLO 205 = test system: COLO 205
HCT-116 = test system: HCT-116
HL-60 = test system: HL-60
HT-29 = test system: HT-29
IGROV-1 = test system: IGROV-1
KM12 = test system: KM12
M14 = test system: M14
MOLT-4 = test system: MOLT-4
Malme-3M = test system: Malme-3M
NCI-H23 = test system: NCI-H23
OVCAR-3 = test system: OVCAR-3
SF-295 = test system: SF-295
SK-MEL-28 = test system: SK-MEL-28
SK-MEL-5 = test system: SK-MEL-5
SNB-75 = test system: SNB-75
ACHN = test system: ACHN
SR = test system: SR
HOP-92 = test system: HOP-92

Measured: GI50

N#CCCN(CCC#N)c1ccc(/C=C2\N=C(COc3ccc(Cl)cc3Cl)OC2=O)cc1
inactive: COLO 205 > 100 µM | HCT-116 > 100 µM | HL-60 > 100 µM | HT-29 > 100 µM | IGROV-1 > 100 µM | KM12 > 100 µM | M14 > 100 µM | MOLT-4 > 100 µM | Malme-3M > 100 µM | NCI-H23 > 100 µM | OVCAR-3 > 100 µM | SF-295 > 100 µM | SK-MEL-28 > 100 µM | SK-MEL-5 > 100 µM | SNB-75 71.8 µM

CC1(C)C2CCC13C(=O)C1OC3(C2)C2C(=O)N(c3ccccc3)C(=O)C12 (centres undefined)
inactive: ACHN > 100 µM | COLO 205 > 100 µM | HCT-116 > 100 µM | HL-60 > 100 µM | HT-29 51.4 µM | IGROV-1 > 100 µM | KM12 > 100 µM | M14 > 100 µM | MOLT-4 > 100 µM | Malme-3M > 100 µM | NCI-H23 38.1 µM | OVCAR-3 > 100 µM | SF-295 > 100 µM | SK-MEL-5 > 100 µM | SNB-75 > 100 µM

C[C@@H]1C[C@]2(C[C@@H](C)C3[C@@H](CC4(C)[C@@H]5CCC6C(C)(C)OC(=O)C=C[C@]67C[C@@]5(CC[C@]34C)OO7)O2)OC1=O (some centres undefined)
inactive: ACHN 92.5 µM | COLO 205 > 100 µM | HCT-116 61.5 µM | HL-60 46.2 µM | HT-29 > 100 µM | IGROV-1 56.2 µM | M14 48.1 µM | Malme-3M 37.9 µM | NCI-H23 > 100 µM | OVCAR-3 24.1 µM | SF-295 36 µM | SK-MEL-28 66.7 µM | SK-MEL-5 37.9 µM | SNB-75 18.4 µM | SR > 100 µM

O=C1c2c(c3c4ccccc4[nH]c3c3[nH]c4ccccc4c23)C(=O)N1Cc1ccccc1
inactive: ACHN 2.87 µM | COLO 205 2.2 µM | HCT-116 2.74 µM | HOP-92 2.43 µM | HT-29 4.04 µM | IGROV-1 4.09 µM | KM12 3.08 µM | M14 3.31 µM | MOLT-4 2.14 µM | Malme-3M 3.54 µM | NCI-H23 2.08 µM | OVCAR-3 2.81 µM | SF-295 3.9 µM | SK-MEL-28 2.89 µM | SK-MEL-5 1.85 µM | SNB-75 3.09 µM

COc1cc(Nc2cnc3ccc(N)cc3n2)cc(OC)c1OC
inactive: ACHN > 100 µM | COLO 205 42.5 µM | HCT-116 > 94.6 µM | HL-60 17.7 µM | HOP-92 61.2 µM | HT-29 48.9 µM | IGROV-1 80.4 µM | KM12 39.4 µM | M14 > 100 µM | MOLT-4 49 µM | Malme-3M > 65.2 µM | NCI-H23 98.6 µM | OVCAR-3 41.3 µM | SF-295 > 96.6 µM | SK-MEL-28 78.2 µM | SK-MEL-5 16.9 µM | SNB-75 49.3 µM

CCOc1ccccc1/N=N/c1ccc2oc(=O)c(C(=O)Nc3cccc(C)c3)cc2c1
inactive: COLO 205 26.7 µM | HCT-116 20.2 µM | HL-60 10.2 µM | HT-29 36.2 µM | IGROV-1 39.5 µM | KM12 30 µM | M14 18.7 µM | MOLT-4 19.9 µM | Malme-3M 29.9 µM | NCI-H23 21.4 µM | OVCAR-3 20 µM | SF-295 29.6 µM | SK-MEL-28 26 µM | SK-MEL-5 15.1 µM | SNB-75 37 µM

Oc1c2c(nc3cc4c(cc13)OCO4)-c1ccccc1CC2
inactive: ACHN > 100 µM | COLO 205 > 100 µM | HCT-116 > 100 µM | HL-60 > 100 µM | HT-29 > 100 µM | IGROV-1 > 100 µM | M14 > 100 µM | MOLT-4 > 100 µM | Malme-3M > 100 µM | NCI-H23 > 100 µM | OVCAR-3 > 100 µM | SF-295 > 100 µM | SK-MEL-28 > 100 µM | SK-MEL-5 > 100 µM | SNB-75 23.6 µM | SR > 100 µM

From ChEMBL document CHEMBL1201862, “PubChem BioAssay data set” (2004)
